# From patent US8283353B2, “Fused ring compound and use thereof” (Takeda Pharmaceutical Company Limited, priority 2009, dated 2012)
# Experiments:
# [1] = biological target: T1, human AT1 receptor (Homo sapiens, UniProt P30556); experiment: AT1 receptor antagonistic activity: [125I]-angiotensin II binding assay on human AT1 receptor-expressing CHO-K1 cellular membrane fraction; conditions: 22.5 pM [125I]-angiotensin II, 1 hr room temperature
# T1 construct: expressed in transfected cells; membrane fraction
# T1 sequence (P30556 1-359): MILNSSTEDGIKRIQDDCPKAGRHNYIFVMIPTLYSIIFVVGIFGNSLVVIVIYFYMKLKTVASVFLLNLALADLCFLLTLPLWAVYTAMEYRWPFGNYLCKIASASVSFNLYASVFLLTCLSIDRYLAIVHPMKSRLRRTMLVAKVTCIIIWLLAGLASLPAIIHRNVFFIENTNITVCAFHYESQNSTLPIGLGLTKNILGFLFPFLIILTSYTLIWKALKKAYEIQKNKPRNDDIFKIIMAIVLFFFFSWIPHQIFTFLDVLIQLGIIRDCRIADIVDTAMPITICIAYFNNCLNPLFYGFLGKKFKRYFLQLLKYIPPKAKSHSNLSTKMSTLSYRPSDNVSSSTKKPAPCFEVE
# Summary of the method: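 Competition binding used radiolabelled angiotensin II on stably transfected CHO-K1 membrane fractions in Tris pH 7.4/MgCl2 buffer, optionally containing 0.3 mg/mL fatty acid-free BSA, 1 hr at room temperature. Filtration onto GF/C separated bound tracer, and nonspecific binding was measured with candesartan.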
# [2] = biological target: T2, human PPARγ (Homo sapiens, UniProt P37231); experiment: PPARγ agonistic activity: luciferase reporter assay in PPARγ:RXRα:4ERPP/CHO-K1 cells; type: cell-based; conditions: CHO-K1, test compound 10^−6 M; luciferase activity of control compound X (1 μM) = 100%, non-administration group = 0%
# T2 construct: expressed in transfected cells
# T2 sequence (P37231 1-477 isoform P37231-2): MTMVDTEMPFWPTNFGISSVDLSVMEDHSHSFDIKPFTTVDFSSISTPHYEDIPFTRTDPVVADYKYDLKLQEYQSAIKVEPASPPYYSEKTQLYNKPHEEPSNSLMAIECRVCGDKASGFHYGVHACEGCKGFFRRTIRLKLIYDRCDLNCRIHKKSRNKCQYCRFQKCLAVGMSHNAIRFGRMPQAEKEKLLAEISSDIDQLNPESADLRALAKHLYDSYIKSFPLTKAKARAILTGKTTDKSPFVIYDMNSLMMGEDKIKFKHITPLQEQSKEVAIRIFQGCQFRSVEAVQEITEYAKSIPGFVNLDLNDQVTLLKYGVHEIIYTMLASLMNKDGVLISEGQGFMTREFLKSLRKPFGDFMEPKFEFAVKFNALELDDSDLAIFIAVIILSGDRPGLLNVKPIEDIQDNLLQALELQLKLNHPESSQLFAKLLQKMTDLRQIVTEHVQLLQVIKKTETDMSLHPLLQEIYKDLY
# T2 sequence (P19793 1-462 partner): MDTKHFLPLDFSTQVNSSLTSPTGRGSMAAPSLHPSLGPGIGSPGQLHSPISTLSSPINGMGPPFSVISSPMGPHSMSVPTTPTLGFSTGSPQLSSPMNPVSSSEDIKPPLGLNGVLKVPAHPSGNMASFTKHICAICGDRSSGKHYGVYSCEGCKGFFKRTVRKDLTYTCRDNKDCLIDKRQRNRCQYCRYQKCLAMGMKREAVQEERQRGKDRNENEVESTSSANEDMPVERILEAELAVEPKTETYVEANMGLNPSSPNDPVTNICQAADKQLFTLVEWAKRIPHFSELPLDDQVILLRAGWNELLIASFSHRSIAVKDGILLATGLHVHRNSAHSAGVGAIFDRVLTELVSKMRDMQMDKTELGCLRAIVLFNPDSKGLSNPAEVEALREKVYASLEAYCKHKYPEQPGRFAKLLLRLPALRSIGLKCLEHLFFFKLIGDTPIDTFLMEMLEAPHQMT
# Summary of the method: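 CHO-K1 cells stably carrying hPPARγ/RXRα and a 4ERPP luciferase reporter, dosed with test compound for 1 day at 37 °C in Ham's F12 with 0.1% fatty acid-free BSA. Luciferase read by luminescence; activity given as % of 1 μM control compound X (100%) versus untreated (0%).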
SMILES,IC50 [1] [nM],activation at 1 µM [2] [%]
"CCCc1c(Cc2ccc(-c3ccccc3-c3noc(=O)[nH]3)cc2)c(=O)n([C@H]2CC[C@H](OCC(O)C(F)(F)F)CC2)c2ncnn12 (stereo partly drawn) [Example 325, 6-{[2′-(5-oxo-4,5-dihydro-1,2,4-oxadiazol-3-yl)biphenyl-4-yl]methyl}-7-propyl-4-[trans-4-(3,3,3-trifluoro-2-hydroxypropoxy)cyclohexyl][1,2,4]triazolo[1,5-a]pyrimidin-5(4H)-one]",2,31
"CCCc1c(Cc2ccc(-c3ccccc3-c3noc(=O)[nH]3)cc2)c(=O)n([C@H]2CC[C@H](OCC(O)CC)CC2)c2ncnn12 (stereo partly drawn) [Example 326, 4-[trans-4-(2-hydroxybutoxy)cyclohexyl]-6-{[2′-(5-oxo-4,5-dihydro-1,2,4-oxadiazol-3-yl)biphenyl-4-yl]methyl}-7-propyl[1,2,4]triazolo[1,5-a]pyrimidin-5(4H)-one]",1.8,29
"C=CC(O)CO[C@H]1CC[C@H](n2c(=O)c(Cc3ccc(-c4ccccc4-c4noc(=O)[nH]4)cc3)c(CCC)n3ncnc32)CC1 (stereo partly drawn) [Example 331, 4-{trans-4-[(2-hydroxybut-3-en-1-yl)oxy]cyclohexyl}-6-{[2′-(5-oxo-4,5-dihydro-1,2,4-oxadiazol-3-yl)biphenyl-4-yl]methyl}-7-propyl[1,2,4]triazolo[1,5-a]pyrimidin-5(4H)-one]",2,33
"CCCc1c(Cc2ccc(-c3ccccc3-c3noc(=O)[nH]3)cc2)c(=O)n([C@H]2CC[C@H](OCC(C)(O)CF)CC2)c2ncnn12 (stereo partly drawn) [Example 337, 4-[trans-4-(3-fluoro-2-hydroxy-2-methylpropoxy)cyclohexyl]-6-{[2′-(5-oxo-4,5-dihydro-1,2,4-oxadiazol-3-yl)biphenyl-4-yl]methyl}-7-propyl[1,2,4]triazolo[1,5-a]pyrimidin-5(4H)-one]",1.9,24
"CCCc1c(Cc2ccc(-c3ccccc3-c3noc(=O)[nH]3)cc2)c(=O)n([C@H]2CC[C@H](OCC(C)(O)CC)CC2)c2ncnn12 (stereo partly drawn) [Example 345, 4-[trans-4-(2-hydroxy-2-methylbutoxy)cyclohexyl]-6-{[2′-(5-oxo-4,5-dihydro-1,2,4-oxadiazol-3-yl)biphenyl-4-yl]methyl}-7-propyl[1,2,4]triazolo[1,5-a]pyrimidin-5(4H)-one]",2.1,18

# Other lines, results leading:
IC50 [1] [nM],activation at 1 µM [2] [%],SMILES
1.9,19,"CCCc1c(Cc2ccc(-c3ccccc3-c3noc(=O)[nH]3)cc2)c(=O)n([C@H]2CC[C@H](OCC(C)(O)C(F)(F)F)CC2)c2ncnn12 (stereo partly drawn) [Example 335, 6-{[2′-(5-oxo-4,5-dihydro-1,2,4-oxadiazol-3-yl)biphenyl-4-yl]methyl}-7-propyl-4-[trans-4-(3,3,3-trifluoro-2-hydroxy-2-methylpropoxy)cyclohexyl][1,2,4]triazolo[1,5-a]pyrimidin-5(4H)-one]"
1.6,36,"CCCc1c(Cc2ccc(-c3ccccc3-c3noc(=O)[nH]3)cc2)c(=O)n([C@H]2CC[C@H](OCC3(O)CCC3)CC2)c2ncnn12 [Example 338, 4-{trans-4-[(1-hydroxycyclobutyl)methoxy]cyclohexyl}-6-{[2′-(5-oxo-4,5-dihydro-1,2,4-oxadiazol-3-yl)biphenyl-4-yl]methyl}-7-propyl[1,2,4]triazolo[1,5-a]pyrimidin-5(4H)-one]"
1.4,27,"CCCc1c(Cc2ccc(-c3ccccc3-c3noc(=O)[nH]3)cc2)c(=O)n([C@H]2CC[C@H](OCC(O)(CF)CF)CC2)c2ncnn12 [Example 339, 4-{trans-4-[3-fluoro-2-(fluoromethyl)-2-hydroxypropoxy]cyclohexyl}-6-{[2′-(5-oxo-4,5-dihydro-1,2,4-oxadiazol-3-yl)biphenyl-4-yl]methyl}-7-propyl[1,2,4]triazolo[1,5-a]pyrimidin-5(4H)-one]"
